What was measured:
[1] = molecular target: T1, Sodium-dependent dopamine transporter (Homo sapiens, UniProt Q01959); experiment: Inhibition of [3H]dopamine reuptake at human DAT expressed in HEK293 cells by SPA; type: cell-based
[2] = Apparent permeability from apical to basolateral side of the MDCK cells expressing MDR1 gene; type: ADME, cell-based, Canis lupus familiaris; conditions: dog
[3] = molecular target: T2, Sodium-dependent serotonin transporter (Homo sapiens, UniProt P31645); experiment: Inhibition of [3H]citalopram uptake at human 5HTT expressed in HEK293 cells by SPA; type: cell-based
T2 sequence (P31645 whole entry): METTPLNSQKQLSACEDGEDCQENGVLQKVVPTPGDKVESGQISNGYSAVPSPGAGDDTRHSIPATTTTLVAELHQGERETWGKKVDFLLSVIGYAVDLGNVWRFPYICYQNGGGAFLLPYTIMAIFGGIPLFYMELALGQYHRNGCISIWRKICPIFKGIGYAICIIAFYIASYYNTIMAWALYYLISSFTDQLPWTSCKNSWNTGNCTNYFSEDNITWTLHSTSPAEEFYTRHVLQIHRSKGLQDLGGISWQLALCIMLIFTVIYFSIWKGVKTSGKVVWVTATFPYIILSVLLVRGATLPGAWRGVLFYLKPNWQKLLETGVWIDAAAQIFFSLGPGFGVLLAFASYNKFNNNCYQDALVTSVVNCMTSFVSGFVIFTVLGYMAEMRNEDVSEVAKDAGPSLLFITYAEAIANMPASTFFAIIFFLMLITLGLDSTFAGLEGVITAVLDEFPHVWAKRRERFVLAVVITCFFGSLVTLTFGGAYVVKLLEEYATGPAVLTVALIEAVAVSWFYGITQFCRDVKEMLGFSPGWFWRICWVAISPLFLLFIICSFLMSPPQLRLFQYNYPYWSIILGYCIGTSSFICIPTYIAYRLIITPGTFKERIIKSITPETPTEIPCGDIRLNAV

Cytochrome P450 2D6 = Cytochrome P450 2D6 (Homo sapiens, UniProt P10635); experiment: Inhibition of CYP2D6; type: ADME
Cytochrome P450 2D6, sequence (P10635 whole entry): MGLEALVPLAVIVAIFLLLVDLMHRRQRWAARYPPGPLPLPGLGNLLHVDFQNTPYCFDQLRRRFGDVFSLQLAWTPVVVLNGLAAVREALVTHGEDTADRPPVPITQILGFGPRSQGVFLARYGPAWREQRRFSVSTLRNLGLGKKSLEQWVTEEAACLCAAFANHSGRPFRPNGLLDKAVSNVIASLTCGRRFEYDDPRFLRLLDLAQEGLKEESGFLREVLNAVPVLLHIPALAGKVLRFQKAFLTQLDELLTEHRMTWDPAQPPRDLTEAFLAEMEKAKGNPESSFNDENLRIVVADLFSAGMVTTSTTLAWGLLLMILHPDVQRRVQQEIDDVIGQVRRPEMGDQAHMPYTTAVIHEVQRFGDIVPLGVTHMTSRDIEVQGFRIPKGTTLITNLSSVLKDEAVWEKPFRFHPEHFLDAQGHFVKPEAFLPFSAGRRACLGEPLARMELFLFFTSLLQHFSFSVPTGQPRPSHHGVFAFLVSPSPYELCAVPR

[4] = Metabolic stability in human liver microsomes assessed as intrinsic clearance; type: ADME, Microsome
[5] = Ratio of permeability from basolateral to apical side over apical to basolateral side of MDCK cells expressing MDR1 gene; conditions: dog
[6] = Apparent permeability from basolateral to apical side of the MDCK cells expressing MDR1 gene; type: ADME, cell-based, Canis lupus familiaris; conditions: dog
[7] = molecular target: Sodium-dependent noradrenaline transporter (Homo sapiens, UniProt P23975); experiment: Inhibition of [3H]nisoxetine reuptake at human NET expressed in HEK293 cells by SPA; type: cell-based
Sodium-dependent noradrenaline transporter, sequence (P23975 whole entry): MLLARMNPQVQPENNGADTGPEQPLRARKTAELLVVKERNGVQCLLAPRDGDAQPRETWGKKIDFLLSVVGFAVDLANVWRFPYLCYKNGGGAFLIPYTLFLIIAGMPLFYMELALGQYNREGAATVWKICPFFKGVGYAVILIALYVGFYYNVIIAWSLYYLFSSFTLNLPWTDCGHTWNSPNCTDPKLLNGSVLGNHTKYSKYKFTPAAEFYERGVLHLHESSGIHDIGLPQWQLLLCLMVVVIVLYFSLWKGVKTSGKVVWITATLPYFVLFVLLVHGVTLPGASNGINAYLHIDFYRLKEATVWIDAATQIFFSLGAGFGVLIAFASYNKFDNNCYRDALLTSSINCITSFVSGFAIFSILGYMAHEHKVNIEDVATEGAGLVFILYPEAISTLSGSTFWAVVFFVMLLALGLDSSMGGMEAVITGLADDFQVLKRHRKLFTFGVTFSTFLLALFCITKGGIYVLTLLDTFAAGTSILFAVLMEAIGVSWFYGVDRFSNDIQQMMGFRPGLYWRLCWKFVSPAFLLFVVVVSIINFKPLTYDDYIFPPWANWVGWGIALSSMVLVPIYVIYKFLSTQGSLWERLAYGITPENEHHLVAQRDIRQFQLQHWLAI

Cytochrome P450 2C9 = Cytochrome P450 2C9 (Homo sapiens, UniProt P11712); experiment: Inhibition of CYP2C9; type: ADME
Cytochrome P450 2C9, sequence (P11712 whole entry): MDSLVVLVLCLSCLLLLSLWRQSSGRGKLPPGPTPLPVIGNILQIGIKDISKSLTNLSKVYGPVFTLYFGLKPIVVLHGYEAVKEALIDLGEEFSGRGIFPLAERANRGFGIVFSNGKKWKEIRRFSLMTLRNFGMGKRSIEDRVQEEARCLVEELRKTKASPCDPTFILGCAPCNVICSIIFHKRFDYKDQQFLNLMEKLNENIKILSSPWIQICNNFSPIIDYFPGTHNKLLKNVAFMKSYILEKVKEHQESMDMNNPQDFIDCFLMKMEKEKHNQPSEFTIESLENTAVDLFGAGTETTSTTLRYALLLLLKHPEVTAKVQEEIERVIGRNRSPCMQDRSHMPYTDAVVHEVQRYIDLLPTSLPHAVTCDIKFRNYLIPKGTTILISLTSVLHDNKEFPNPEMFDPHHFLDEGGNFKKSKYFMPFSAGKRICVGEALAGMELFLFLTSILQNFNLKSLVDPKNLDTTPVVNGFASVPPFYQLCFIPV

Cytochrome P450 3A4 = Cytochrome P450 3A4 (Homo sapiens, UniProt P08684); experiment: Inhibition of CYP3A4; type: ADME
Cytochrome P450 3A4, sequence (P08684 whole entry): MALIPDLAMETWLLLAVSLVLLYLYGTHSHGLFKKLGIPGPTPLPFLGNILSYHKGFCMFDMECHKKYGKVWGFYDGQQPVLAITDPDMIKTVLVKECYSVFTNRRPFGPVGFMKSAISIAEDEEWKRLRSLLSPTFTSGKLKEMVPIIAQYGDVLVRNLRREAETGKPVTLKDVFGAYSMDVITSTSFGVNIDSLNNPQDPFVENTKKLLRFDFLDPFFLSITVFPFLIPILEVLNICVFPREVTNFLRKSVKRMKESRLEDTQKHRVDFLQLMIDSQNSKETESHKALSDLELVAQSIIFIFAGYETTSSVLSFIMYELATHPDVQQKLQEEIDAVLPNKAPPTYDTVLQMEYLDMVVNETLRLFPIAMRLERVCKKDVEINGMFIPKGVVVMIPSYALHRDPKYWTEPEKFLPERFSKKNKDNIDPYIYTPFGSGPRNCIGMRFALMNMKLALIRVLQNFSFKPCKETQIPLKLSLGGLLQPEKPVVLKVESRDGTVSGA

[8] = molecular target: Voltage-gated inwardly rectifying potassium channel KCNH2 (Homo sapiens, UniProt Q12809); experiment: Displacement of [3H]dofetilide from human ERG channel
Voltage-gated inwardly rectifying potassium channel KCNH2, sequence (Q12809 whole entry): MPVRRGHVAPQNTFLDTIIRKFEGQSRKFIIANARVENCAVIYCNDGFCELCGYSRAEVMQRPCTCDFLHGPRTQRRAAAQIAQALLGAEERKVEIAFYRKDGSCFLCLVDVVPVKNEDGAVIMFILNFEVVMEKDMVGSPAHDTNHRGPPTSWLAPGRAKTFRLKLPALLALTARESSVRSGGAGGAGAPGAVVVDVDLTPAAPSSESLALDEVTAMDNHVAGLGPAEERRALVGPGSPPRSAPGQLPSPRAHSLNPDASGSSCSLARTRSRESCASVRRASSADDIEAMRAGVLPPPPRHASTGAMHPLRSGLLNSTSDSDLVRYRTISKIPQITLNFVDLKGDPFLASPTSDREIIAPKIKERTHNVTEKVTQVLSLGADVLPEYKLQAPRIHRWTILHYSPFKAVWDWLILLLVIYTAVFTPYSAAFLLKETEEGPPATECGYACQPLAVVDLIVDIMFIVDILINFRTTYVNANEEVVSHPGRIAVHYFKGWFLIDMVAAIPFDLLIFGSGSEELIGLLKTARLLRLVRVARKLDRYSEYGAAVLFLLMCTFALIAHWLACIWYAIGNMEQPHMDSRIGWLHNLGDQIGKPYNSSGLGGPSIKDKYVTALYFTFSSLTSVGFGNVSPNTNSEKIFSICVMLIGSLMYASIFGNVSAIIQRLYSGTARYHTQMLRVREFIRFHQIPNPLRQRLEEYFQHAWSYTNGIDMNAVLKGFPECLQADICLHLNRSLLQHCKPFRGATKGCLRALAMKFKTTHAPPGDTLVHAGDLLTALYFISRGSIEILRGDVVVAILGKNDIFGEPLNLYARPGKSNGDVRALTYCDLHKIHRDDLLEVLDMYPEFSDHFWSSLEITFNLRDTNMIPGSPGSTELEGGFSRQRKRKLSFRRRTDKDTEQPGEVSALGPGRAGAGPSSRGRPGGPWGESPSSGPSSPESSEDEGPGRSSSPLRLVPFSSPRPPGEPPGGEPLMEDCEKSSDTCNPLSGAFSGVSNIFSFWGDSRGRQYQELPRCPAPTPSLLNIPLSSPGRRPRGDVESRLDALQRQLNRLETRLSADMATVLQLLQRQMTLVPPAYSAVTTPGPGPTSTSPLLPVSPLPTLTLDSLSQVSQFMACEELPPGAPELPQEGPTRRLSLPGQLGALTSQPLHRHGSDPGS

[9] = Inhibition of sodium channel site 2
[10] = Distribution coefficient, log D at pH 7.4; type: physicochemical; conditions: octanol/water
[11] = Dissociation constant, pKa of the compound; type: physicochemical
Cytochrome P450 1A2 = molecular target: T3, Cytochrome P450 1A2 (Homo sapiens, UniProt P05177); experiment: Inhibition of CYP1A2; type: ADME
T3 sequence (P05177 whole entry): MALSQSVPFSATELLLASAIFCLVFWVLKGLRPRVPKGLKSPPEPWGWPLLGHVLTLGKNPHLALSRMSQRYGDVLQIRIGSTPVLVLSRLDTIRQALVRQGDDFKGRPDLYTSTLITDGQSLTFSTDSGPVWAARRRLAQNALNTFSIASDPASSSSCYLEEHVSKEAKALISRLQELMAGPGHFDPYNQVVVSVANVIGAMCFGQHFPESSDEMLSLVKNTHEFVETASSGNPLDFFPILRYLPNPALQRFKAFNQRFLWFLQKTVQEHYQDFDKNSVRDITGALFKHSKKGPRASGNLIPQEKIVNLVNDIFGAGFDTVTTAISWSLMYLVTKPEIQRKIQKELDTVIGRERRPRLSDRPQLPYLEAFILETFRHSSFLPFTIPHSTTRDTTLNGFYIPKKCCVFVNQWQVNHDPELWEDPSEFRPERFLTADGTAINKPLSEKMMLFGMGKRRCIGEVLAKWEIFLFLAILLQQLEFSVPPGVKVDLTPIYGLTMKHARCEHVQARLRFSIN

[12] = Inhibition of L type calcium channel
[13] = molecular target: T2, Sodium-dependent serotonin transporter
Description: Inhibition of [3H]5HT uptake at human SERT expressed in HEK293 cells

CYP3A4 = CYP3A4 (Homo sapiens, UniProt P08684); experiment: Inhibition of CYP3A4 at 3 uM; type: ADME
CYP2C9 = CYP2C9 (Homo sapiens, UniProt P11712); experiment: Inhibition of CYP2C9 at 3 uM; type: ADME
CYP2C9, sequence (P11712 whole entry): as the sequence (P11712 whole entry) above

[14] = molecular target: T1, Sodium-dependent dopamine transporter
Description: Inhibition of [3H]dopamine uptake at human DAT expressed in HEK293 cells

CYP2D6 = CYP2D6 (Homo sapiens, UniProt P10635); experiment: Inhibition of CYP2D6 at 3 uM; type: ADME
Liver microsomes = experiment: Metabolic stability in human liver microsomes; type: ADME, Microsome
CYP1A2 = CYP1A2 (Homo sapiens, UniProt P05177); experiment: Inhibition of CYP1A2 at 3 uM; type: ADME
Homo sapiens [15] = organism: Homo sapiens; experiment: Selectivity for human NET over human SERT
Hepatocyte = experiment: Metabolic stability in human hepatocytes assessed as intrinsic clearance; type: ADME, cell-based, Liver
Homo sapiens [16] = organism: Homo sapiens; experiment: Selectivity for human NET over human DAT

T1 sequence (Q01959 whole entry): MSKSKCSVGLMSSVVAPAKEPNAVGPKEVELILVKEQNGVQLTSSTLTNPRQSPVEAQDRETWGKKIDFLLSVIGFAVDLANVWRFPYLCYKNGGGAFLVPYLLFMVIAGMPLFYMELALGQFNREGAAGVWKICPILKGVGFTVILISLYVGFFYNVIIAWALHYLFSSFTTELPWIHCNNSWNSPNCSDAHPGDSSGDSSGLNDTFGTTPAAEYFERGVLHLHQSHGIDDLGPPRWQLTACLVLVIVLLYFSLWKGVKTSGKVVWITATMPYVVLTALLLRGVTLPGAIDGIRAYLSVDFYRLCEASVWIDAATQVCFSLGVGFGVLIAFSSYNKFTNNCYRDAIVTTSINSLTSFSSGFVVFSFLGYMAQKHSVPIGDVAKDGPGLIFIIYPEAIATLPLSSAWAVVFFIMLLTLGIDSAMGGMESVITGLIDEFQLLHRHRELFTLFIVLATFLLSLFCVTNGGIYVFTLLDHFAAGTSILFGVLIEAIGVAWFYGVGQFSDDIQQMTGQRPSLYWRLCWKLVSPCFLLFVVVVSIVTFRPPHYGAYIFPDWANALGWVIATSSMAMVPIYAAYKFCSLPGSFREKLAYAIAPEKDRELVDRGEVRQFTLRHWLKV

For `CN(C)S(=O)(=O)N(Cc1ccccc1-c1ccccc1)[C@H]1CCNC1`, the Ki [1] was 2690 nM, the Papp A→B [2] was 17 ×10⁻⁶ cm/s and the Ki [3] was 3330 nM. The IC50 (Cytochrome P450 2D6) was 840 nM, the microsomal CLint [4] was 16 µL/min/mg and the efflux ratio [5] was 4. The Papp B→A [6] was 68 ×10⁻⁶ cm/s and the Ki [7] was 8 nM.
`CS(=O)(=O)N(Cc1ccccc1-c1ccccc1)[C@@H]1CCNC1` gave a Ki [1] of 2390 nM, a Ki [3] of 5350 nM and an IC50 (Cytochrome P450 2D6) of 5360 nM. For the same compound, the microsomal CLint [4] was less than 7 µL/min/mg and the Ki [7] was 29 nM.
With `CS(=O)(=O)N(Cc1ccccc1Oc1ccccc1)[C@H]1CCNC1` the Ki [1] was 2550 nM, the Ki [3] was 2700 nM and the Ki [7] was 96 nM.
Compound `CCS(=O)(=O)N(Cc1ccccc1-c1ccccc1)[C@H]1CCNC1` has a Ki [1] of 2760 nM, a Ki [3] of 5620 nM and an IC50 (Cytochrome P450 2D6) of 1890 nM. It also gave a microsomal CLint [4] of less than 7 µL/min/mg and a Ki [7] of 5 nM.
For `CC(C)C(=O)N(Cc1ccccc1C(C)C)[C@H]1CCNC1`, the Ki [1] was 3410 nM, the Ki [3] was 544 nM and the microsomal CLint [4] was less than 7 µL/min/mg. The Ki [7] was 70 nM.
For `CC(C)C(=O)N(Cc1ccccc1-c1ccccc1)[C@H]1CCNC1`, the IC50 (Cytochrome P450 2C9) was greater than 3 µM, the Ki [1] was 3740 nM and the IC50 (Cytochrome P450 3A4) was greater than 3 µM. The Papp A→B [2] was 11 ×10⁻⁶ cm/s, the Ki [3] was 960 nM and the Ki [8] was 2840 nM. It also gave an IC50 (Cytochrome P450 2D6) of 1860 nM, a Ki [9] of 1200 nM and a logD [10] of 0.8. The pKa [11] was 9.4, the IC50 (Cytochrome P450 1A2) was greater than 3 µM and the Ki [12] was greater than 10000 nM. The microsomal CLint [4] was less than 7 µL/min/mg, the efflux ratio [5] was 6.1 and the Papp B→A [6] was 68 ×10⁻⁶ cm/s. The Ki [7] was 6 nM.
Work on `CC(C)S(=O)(=O)N(Cc1ccccc1-c1ccccc1)[C@H]1CCNC1` yielded a Ki [1] of 2700 nM, a Ki [3] of 4690 nM and an IC50 (Cytochrome P450 2D6) of 350 nM. For the same compound, the microsomal CLint [4] was 20 µL/min/mg and the Ki [7] was 10 nM.
`CN1CC[C@H](N(Cc2ccccc2-c2ccccc2)S(C)(=O)=O)C1` gave a Ki [3] greater than 10000 nM and a Ki [7] of 748 nM.
Compound `CCOC(=O)N(Cc1ccccc1C(F)(F)F)[C@H]1CCNC1` has a Ki [1] of 3210 nM, a Ki [3] of 427 nM and a Ki [7] of 46 nM.
Work on `CCOC(=O)N(Cc1ccccc1SC)[C@H]1CCNC1` yielded a Ki [3] of 353 nM and a Ki [7] of 89 nM.
Compound `CC(C)C(=O)N(Cc1ccccc1C(F)(F)F)[C@H]1CCNC1` has a Ki [3] of 133 nM, a microsomal CLint [4] of less than 7 µL/min/mg and a Ki [7] of 63 nM.
With `CSc1ccccc1CN([C@H]1CCNC1)S(C)(=O)=O` the Ki [1] was 2950 nM, the Ki [3] was 1250 nM and the microsomal CLint [4] was less than 7 µL/min/mg. The Ki [7] was 86 nM.
Work on `CCOC(=O)N(Cc1ccccc1Oc1ccccc1)[C@H]1CCNC1` yielded a Ki [1] of 1900 nM, a Ki [3] of 444 nM and an IC50 (Cytochrome P450 2D6) of 420 nM. It also gave a microsomal CLint [4] of 21 µL/min/mg and a Ki [7] of 23 nM.
In the case of `CC(C)C(=O)N(Cc1cccc(Cl)c1Cl)[C@H]1CCNC1`, the IC50 [13] is reported as 12 nM, the inhibition at 3 µM (CYP3A4) is reported as less than 40% and the inhibition at 3 µM (CYP2C9) is reported as less than 40%. The IC50 [14] was 1250 nM, the inhibition at 3 µM (CYP2D6) was less than 10% and the IC50 (Cytochrome P450 2D6) was greater than 3000 nM. For the same compound, the t1/2 (Liver microsomes) was greater than 120 min and the inhibition at 3 µM (CYP1A2) was less than 40%.
Work on `CCS(=O)(=O)N(Cc1ccccc1-c1ccccc1)[C@H]1CCN(C)C1` yielded a Ki [3] greater than 10000 nM and a Ki [7] of 466 nM.
`CS(=O)(=O)N(Cc1ccccc1-c1ccccc1)[C@H]1CCNC1` showed an IC50 (Cytochrome P450 2C9) greater than 3 µM, a Ratio Ki (Homo sapiens [15]) greater than 100 and a Ki [1] of 2670 nM. For the same compound, the CL (Hepatocyte) was less than 5 µL/min/mg, the IC50 (Cytochrome P450 3A4) was greater than 3 µM and the Papp A→B [2] was 10 ×10⁻⁶ cm/s. For the same compound, the Ki [3] was 4120 nM, the Ratio Ki (Homo sapiens [16]) was greater than 100 and the Ki [8] was greater than 2700 nM. For the same compound, the IC50 (Cytochrome P450 2D6) was 3100 nM, the Ki [9] was 1900 nM and the logD [10] was 0.6. For the same compound, the pKa [11] was 8.9, the IC50 (Cytochrome P450 1A2) was greater than 3 µM and the Ki [12] was 1900 nM. The microsomal CLint [4] was 7 µL/min/mg, the efflux ratio [5] was 5.1 and the Papp B→A [6] was 51 ×10⁻⁶ cm/s. For the same compound, the Ki [7] was 5 nM.
In the case of `CC(C)C(=O)N(Cc1ccccc1C1CC1)[C@H]1CCNC1`, the Ki [1] is reported as 2920 nM, the Ki [3] is reported as 124 nM and the Ki [7] is reported as 74 nM.
`c1ccc(-c2ccccc2CN(C2CCOCC2)[C@H]2CCNC2)cc1` showed a t1/2 (Liver microsomes) greater than 120 min.
`Clc1cccc(CN(C2CCOCC2)[C@H]2CCNC2)c1Cl` gave a t1/2 (Liver microsomes) of 100 min.

— ChEMBL document CHEMBL1155858, “Derivatives of (3S)-N-(biphenyl-2-ylmethyl)pyrrolidin-3-amine as selective noradrenaline reuptake inhibitors: Reducing P-gp mediated efflux by modulation of H-bond acceptor capacity” (Bioorg Med Chem Lett, 2008)
